From ChEMBL document CHEMBL2169808, “Discovery of pyrazole carboxylic acids as potent inhibitors of rat long chain L-2-hydroxy acid oxidase” (Bioorg Med Chem Lett, 2012)
pIC50: −log10 of the molar value.

Assays:
[1] = biological target: T1, 2-Hydroxyacid oxidase 2 (Homo sapiens) (UniProt Q9NYQ3); experiment: Inhibition of human Hao2-mediated oxidation of 2-hydroxyoctanoic acid assessed as proportionate release of H2O2 at 1 uM
T1 sequence (whole entry): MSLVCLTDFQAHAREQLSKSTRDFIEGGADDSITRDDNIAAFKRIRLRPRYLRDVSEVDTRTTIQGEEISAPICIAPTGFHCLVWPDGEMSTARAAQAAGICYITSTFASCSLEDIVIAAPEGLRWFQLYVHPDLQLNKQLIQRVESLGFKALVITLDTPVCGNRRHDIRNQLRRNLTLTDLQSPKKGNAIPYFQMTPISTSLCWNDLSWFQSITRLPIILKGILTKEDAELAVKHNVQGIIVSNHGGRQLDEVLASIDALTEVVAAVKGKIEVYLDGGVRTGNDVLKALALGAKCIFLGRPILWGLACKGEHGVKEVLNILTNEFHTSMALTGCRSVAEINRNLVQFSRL

Rattus norvegicus = species on record: Rattus norvegicus; experiment: Selectivity ratio of IC50 for rat Hao1 to IC50 for rat Hao2
[2] = biological target: T1, 2-Hydroxyacid oxidase 2 (Homo sapiens); experiment: Inhibition of human Hao2-mediated oxidation of 2-hydroxyoctanoic acid assessed as proportionate release of H2O2 at 10 uM
[3] = biological target: T2, 2-Hydroxyacid oxidase 2 (Rattus norvegicus) (UniProt Q07523); experiment: Inhibition of rat Hao2-mediated oxidation of 2-hydroxyoctanoic acid assessed as proportionate release of H2O2 at 1 uM
T2 sequence (whole entry): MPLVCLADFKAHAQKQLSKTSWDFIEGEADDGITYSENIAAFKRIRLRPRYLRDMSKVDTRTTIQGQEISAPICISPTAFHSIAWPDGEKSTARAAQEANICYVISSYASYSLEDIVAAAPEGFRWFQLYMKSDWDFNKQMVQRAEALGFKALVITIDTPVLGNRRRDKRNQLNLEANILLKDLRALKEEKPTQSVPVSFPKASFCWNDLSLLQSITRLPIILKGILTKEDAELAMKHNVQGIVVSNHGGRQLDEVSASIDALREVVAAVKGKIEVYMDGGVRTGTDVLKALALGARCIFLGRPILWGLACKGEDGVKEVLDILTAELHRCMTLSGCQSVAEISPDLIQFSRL

[4] = biological target: T2, 2-Hydroxyacid oxidase 2 (Rattus norvegicus); experiment: Inhibition of rat Hao2-mediated oxidation of 2-hydroxyoctanoic acid assessed as proportionate release of H2O2 at 10 uM
2-Hydroxyacid oxidase 2 = biological target: T3, 2-Hydroxyacid oxidase 2 (Rattus norvegicus, UniProt Q07523); experiment: Inhibition of rat Hao2-mediated oxidation of 2-hydroxyoctanoic acid assessed as proportionate release of H2O2
T3 sequence (Q07523 whole entry): T2 sequence (whole entry)

SMILES	inhibition [1] [%]	Ratio IC50 (Rattus norvegicus)	inhibition [2] [%]	inhibition [3] [%]	inhibition [4] [%]	pIC50 (2-Hydroxyacid oxidase 2)
O=C(O)c1[nH]nc(CCc2ccccc2)c1Cc1cccc(-c2ccc(F)cc2)c1	4	> 150	16			
Cc1nn(C)c(C(=O)O)c1Cc1cccc(-c2ccc(F)cc2)c1	5		3	4	10	
Cc1[nH]nc(C(=O)O)c1Cc1cccc(C#N)c1						6.30
Cc1[nH]nc(C(=O)O)c1Cc1ccccc1C(F)(F)F						5.89
Cc1[nH]nc(C(=O)O)c1Cc1cccc(-c2ccc(CC(=O)O)cc2)c1						6.40
CCc1[nH]nc(C(=O)O)c1Cc1cccc(-c2ccc(F)cc2)c1						6.52
Cc1n[nH]c(C(=O)O)c1Cc1ccc(OC(F)(F)F)cc1	7	> 150	34			5.89
O=C(O)c1[nH]nc(Cc2ccccc2)c1Cc1cccc(-c2ccc(F)cc2)c1	10	> 150	8			
Cc1[nH]nc(C(=O)O)c1Cc1ccc(-c2ccc(C(F)(F)F)cc2)cc1						5.96
Cc1n[nH]c(C(=O)O)c1Cc1ccc(-c2ccc(OC(F)(F)F)cc2)cc1	11	> 150	29			
Cc1[nH]nc(C(=O)O)c1Cc1cccc(-c2ccc(C#N)cc2)c1						6.52
Cc1n[nH]c(C(=O)O)c1Cc1ccccc1C(F)(F)F	13	> 150	38			
Cc1n[nH]c(C(=O)O)c1CCc1ccc(-c2ccc(F)cc2)cc1	5	> 150	39			6.05
Cc1n[nH]c(C(=O)O)c1Cc1cc2ccccc2s1	8	> 150	29			
Cc1[nH]nc(C(=O)O)c1Cc1ccc(-c2ccc(F)cc2)cc1						6.40
Cc1[nH]nc(C(N)=O)c1Cc1cccc(-c2ccc(F)cc2)c1						5.85
Cc1n[nH]c(C(=O)O)c1Cc1ccc(-c2ccc(C(F)(F)F)cc2)cc1	5	> 150	14			

SMILES	inhibition [1] [%]	Ratio IC50 (Rattus norvegicus)	inhibition [2] [%]	inhibition [3] [%]	inhibition [4] [%]	pIC50 (2-Hydroxyacid oxidase 2)
Cc1c(Cc2cccc(-c3ccc(F)cc3)c2)c(C(=O)O)nn1C	2		4	12	57	
Cc1[nH]nc(C(=O)O)c1Cc1ccc(C(N)=O)cc1						5.96
CCOc1[nH]nc(C(=O)O)c1Cc1cccc(-c2ccc(F)cc2)c1						5.92
Cc1[nH]nc(C(=O)O)c1Cc1cccc2ccccc12						6.70
Cc1n[nH]c(C(=O)O)c1Cc1ccc(C(N)=O)cc1	0	> 150	8			
Cc1[nH]nc(C(=O)O)c1Cc1cccc(C(F)(F)F)c1						6.52
O=C(O)c1[nH]nc(-c2ccccc2)c1Cc1cccc(-c2ccc(F)cc2)c1	1	> 150	14			5.74
Cc1n[nH]c(C(=O)O)c1Cc1ccc(F)cc1	7	> 150	14			
Cc1[nH]nc(C(=O)O)c1Cc1cccc(C(N)=O)c1						6.05
Cc1[nH]nc(C(=O)O)c1Cc1ccc(F)cc1						6.15
O=C(O)c1n[nH]c(Cc2ccccc2)c1Cc1cccc(-c2ccc(F)cc2)c1						6.15
Cc1n[nH]c(C(=O)O)c1-c1ccc(F)cc1	3	> 150	13	1		
O=C(O)c1n[nH]c(CCc2ccccc2)c1Cc1cccc(-c2ccc(F)cc2)c1						6.10
Cc1[nH]nc(C(=O)O)c1Cc1cccc(-c2ccc(C(F)(F)F)cc2)c1						6.40
Cc1[nH]nc(C(=O)O)c1Cc1ccc(-c2ccc(OC(F)(F)F)cc2)cc1						5.70
Cc1n[nH]c(C(=O)Nc2nnn[nH]2)c1Cc1cccc(-c2ccc(F)cc2)c1	0		0	0	9	
Cc1[nH]nc(C(=O)O)c1Cc1ccc(Oc2ccccc2)cc1						6.30

Other lines, results leading:

inhibition [1] [%]	Ratio IC50 (Rattus norvegicus)	inhibition [2] [%]	inhibition [3] [%]	inhibition [4] [%]	pIC50 (2-Hydroxyacid oxidase 2)	SMILES
					6.30	Cc1[nH]nc(C(=O)O)c1Cc1cccc(-c2cccc(F)c2)c1
20	> 150	50				Cc1n[nH]c(C(=O)O)c1Cc1cccc(-c2cccc(F)c2)c1
13	> 150	45				Cc1n[nH]c(C(=O)O)c1Cc1cccc(-c2cccnc2)c1
10	> 150	43				Cc1n[nH]c(C(=O)O)c1Cc1ccc(Oc2ccccc2)cc1
8	> 150	12			5.96	Cc1n[nH]c(C(=O)O)c1Cc1ccc2ccccc2c1
5	> 150	23				Cc1n[nH]c(C(=O)O)c1Cc1cccc(C(F)(F)F)c1
6	> 150	19				Cc1n[nH]c(C(=O)O)c1Cc1cccc(C#N)c1
1	> 150	17				CCOc1n[nH]c(C(=O)O)c1Cc1cccc(-c2ccc(F)cc2)c1
2	> 150	26			6.15	Cc1n[nH]c(C(=O)O)c1Cc1cccc(OC(F)(F)F)c1
18	> 150	60			6.70	Cc1n[nH]c(C(=O)O)c1Cc1cccc(-c2ccc(C(N)=O)cc2)c1
8		8	0	3		Cc1n[nH]c(C(=O)NS(C)(=O)=O)c1Cc1cccc(-c2ccc(F)cc2)c1
1	> 150	13			6.70	Cc1n[nH]c(C(=O)O)c1Cc1cccc(F)c1
22	> 150	59				Cc1n[nH]c(C(=O)O)c1Cc1cccc2ccccc12
5	> 150	36				CCc1n[nH]c(C(=O)O)c1Cc1cccc(-c2ccc(F)cc2)c1
8	> 150	30				Cc1n[nH]c(C(=O)O)c1Cc1cccc(-c2ccc(C(F)(F)F)cc2)c1
5	> 150	22			6.05	Cc1n[nH]c(C(=O)O)c1Cc1cccc(-c2ccccc2F)c1

inhibition [1] [%]	Ratio IC50 (Rattus norvegicus)	inhibition [2] [%]	inhibition [3] [%]	inhibition [4] [%]	pIC50 (2-Hydroxyacid oxidase 2)	SMILES
3	> 150	15			5.96	Cc1n[nH]c(C(=O)O)c1Cc1cccc(-c2ccc(C(=O)O)cc2)c1
7		19	9	53		CNC(=O)c1[nH]nc(C)c1Cc1cccc(-c2ccc(F)cc2)c1
2	> 150	21				Cc1n[nH]c(C(=O)O)c1Cc1cccc(-c2ccc(CC(=O)O)cc2)c1
9	> 150	45			6.05	Cc1n[nH]c(C(=O)O)c1CCc1cccc(-c2ccc(F)cc2)c1
13	> 150	49			6.52	Cc1n[nH]c(C(=O)O)c1Cc1cccc(-c2ccncc2)c1
2	> 150	11			6.30	CC(C)c1n[nH]c(C(=O)O)c1Cc1cccc(-c2ccc(F)cc2)c1
11	> 150	25				Cc1n[nH]c(C(=O)O)c1Cc1ccc(-c2ccc(F)cc2)cc1
16	> 150	55				Cc1n[nH]c(C(=O)O)c1Cc1cccc(-c2ccc(F)cc2)c1
13	> 150	46				Cc1n[nH]c(C(=O)O)c1Cc1cccc(-c2ccc(C#N)cc2)c1
2	> 150	18			5.77	Cc1n[nH]c(C(=O)O)c1Cc1ccc2ccccc2n1
1		14				Cc1n[nH]c(C(N)=O)c1Cc1cccc(-c2ccc(F)cc2)c1
12	> 150	41			6.22	Cc1n[nH]c(C(=O)O)c1Cc1cccc(Oc2ccccc2)c1
					6.40	Cc1[nH]nc(C(=O)O)c1Cc1cccc(-c2cccnc2)c1
6	> 150	34			6.52	Cc1n[nH]c(C(=O)O)c1Cc1cccc(-c2ccc(OC(F)(F)F)cc2)c1
8	> 150	8				Cc1n[nH]c(C(=O)O)c1Cc1cccc(C(N)=O)c1
